These results are taken from ChEMBL document CHEMBL1125926, “Anesthetic steroid mobility in model membrane preparations as examined by high-resolution 1H and 2H NMR spectroscopy” (1991).

Calls of active or inactive are those of the source. The rule behind the calls is not given here.

The first test is described as follows: Compound was evaluated for anesthetic activity (lowest dose producing loss of righting reflex); IA=Inactive. It counts as functional.
Turning to `CC(=O)C1=CCC2C3CC[C@H]4C[C@H](O)CCC4(C)C3C(=O)CC12C` (some centres not stated), the outcome was inactive.

The nature of the next test: Compound was evaluated for anesthetic activity (lowest dose producing loss of righting reflex). Type of test: functional.
`CC(=O)[C@H]1CC[C@H]2[C@@H]3CC[C@H]4C[C@H](O)CC[C@]4(C)[C@H]3CC[C@]12C` [BREXANOLONE] yielded an Activity of 3.1 mg/kg.

In turn, `CC(=O)C1CC[C@H]2[C@@H]3CC[C@H]4C[C@@H](O)CCC4(C)[C@H]3CCC12C` (some centres not stated) returned an Activity of 100 mg/kg.

Consider `CC(=O)[C@H]1CC[C@H]2[C@@H]3CC[C@H]4C[C@H](O)CC[C@]4(C)[C@H]3C(=O)C[C@]12C` [ALFAXALONE], for which the Activity turned out to be 3.1 mg/kg.

Take `CC(=O)C1CC[C@H]2[C@@H]3CC[C@@H]4C[C@H](O)CCC4(C)[C@H]3CCC12C` (some centres not stated): the Activity came to 3.1 mg/kg.

`CC(=O)[C@H]1CC[C@H]2[C@@H]3CC[C@@H]4C[C@H](O)CC[C@]4(C)[C@H]3C(=O)C[C@]12C` [RENANOLONE]: the Activity was 6.3 mg/kg.

Compound `CC(=O)C1CC[C@H]2[C@@H]3CC[C@@H]4C[C@@H](O)CCC4(C)[C@H]3CCC12C` (some centres not stated) returned an Activity of 25 mg/kg.
